Laboratory results as given in PMC10215804, “Exploring Alternative Pathways to Target Bacterial Type II Topoisomerases Using NBTI Antibacterials: Beyond Halogen-Bonding Interactions” (Antibiotics, 2023).

Assay: Metabolic activity assessment (cytotoxicity), CellTiter 96 Aqueous One
Format: cell-based
Settings: human, 72 h treatment, means of three independent measurements ± SD
Protocol: HUVEC (ATCC® CRL-1730™) and HepG2 (ATCC® HB-8065™) cell lines were cultured in Dulbecco’s Modified Eagle Medium (DMEM; Sigma-Aldrich, St. Louis, MO, USA) supplemented with 10% heat-deactivated FBS (Gibco, Grand Island, NE, USA), 2 mM L-glutamine, 100 U/mL penicillin, 100 μg/mL streptomycin (all from Sigma-Aldrich, St. Louis, MO, USA) in a humidified chamber at 37 °C and 5% CO2. The experiments were carried out on passages 4–7 for both cell lines. The tested compounds were dissolved in DMSO and further diluted in culture medium to a desired final concentration. The cells were then seeded into 96-well plates at 5 × 10^4 cells/mL (100 μL/well) or 8 × 10^4 cells/mL (100 μL/well) for HUVEC and HepG2, respectively. The cells were then incubated for 24 h to allow attachment onto the wells. The cells were treated with 1 μM and 50 μM of each compound of interest, or the corresponding vehicle as control. […] Their metabolic activity was assessed after 72 h treatment using a CellTiter 96 Aqueous One Solution Cell Proliferation Assay (Promega, Madison, WI, USA), in accordance with the manufacturer’s instructions. The absorbance was measured at 492 nm on an automated microplate reader, Tecan Spark (Tecan Group Ltd., Männedorf, CH, Switzerland). Data are presented as the percentage of metabolic activity of control cells stimulated with vehicle, or as an IC50 value (mean ± SD) from three independent experiments, each conducted in triplicate (for screening) or duplicate (for IC50 determination). IC50 values were calculated using a non-linear regression model and with Graph Pad Prism 9 software.

| Compound | IC50 at 72 h (HUVEC cells (ATCC CRL-1730)) | IC50 at 72 h (HepG2 cells (ATCC HB-8065)) |
| --- | --- | --- |
| COc1ccc2nccc(C(O)CC3CCC(NCc4ccc(C)cc4)CC3)c2n1 (centres unmarked) [Compound 8, 1-(6-Methoxy-1,5-naphthyridin-4-yl)-2-(4-((4-methylbenzyl)amino)cyclohexyl)ethan-1-ol] | 33.1 ± 6.13 µM | 22.3 ± 0.36 µM |
| COc1ccc2nccc(OCC3CCC(NCc4ccc(C)cc4)CO3)c2n1 (centres unmarked) [Compound 7, 6-(((6-Methoxy-1,5-naphthyridin-4-yl)oxy)methyl)-N-(4-methylbenzyl)tetrahydro-2H-pyran-3-amine] | > 50 µM | > 50 µM |
| COc1ccc2nccc(OCC3CCC(NCc4ccc(C)cc4)CC3)c2n1 (centres unmarked) [Compound 6] | 36.6 ± 7.91 µM | 22.5 ± 2.7 µM |
| COc1ccc2nccc(CCN3CCC(NCc4ccc(C)cc4)CC3)c2n1 [Compound 5, 1-(2-(6-Methoxy-1,5-naphthyridin-4-yl)ethyl)-N-(4-methylbenzyl)piperidin-4-amine] | 36.5 ± 9.82 µM | 20 ± 3.01 µM |
